Tests used:
HDAC7 = target: T1, HDAC7 (Homo sapiens, UniProt Q8WUI4); assay: Global quantitative proteomics, change in protein abundance in Kelly cells; format: cell-based; parameters: endogenous in cells; host or cells: Kelly cells; conditions: 1 μM, 5-hour treatment, vs DMSO, FIG. 3
T1 sequence (Q8WUI4 1-952): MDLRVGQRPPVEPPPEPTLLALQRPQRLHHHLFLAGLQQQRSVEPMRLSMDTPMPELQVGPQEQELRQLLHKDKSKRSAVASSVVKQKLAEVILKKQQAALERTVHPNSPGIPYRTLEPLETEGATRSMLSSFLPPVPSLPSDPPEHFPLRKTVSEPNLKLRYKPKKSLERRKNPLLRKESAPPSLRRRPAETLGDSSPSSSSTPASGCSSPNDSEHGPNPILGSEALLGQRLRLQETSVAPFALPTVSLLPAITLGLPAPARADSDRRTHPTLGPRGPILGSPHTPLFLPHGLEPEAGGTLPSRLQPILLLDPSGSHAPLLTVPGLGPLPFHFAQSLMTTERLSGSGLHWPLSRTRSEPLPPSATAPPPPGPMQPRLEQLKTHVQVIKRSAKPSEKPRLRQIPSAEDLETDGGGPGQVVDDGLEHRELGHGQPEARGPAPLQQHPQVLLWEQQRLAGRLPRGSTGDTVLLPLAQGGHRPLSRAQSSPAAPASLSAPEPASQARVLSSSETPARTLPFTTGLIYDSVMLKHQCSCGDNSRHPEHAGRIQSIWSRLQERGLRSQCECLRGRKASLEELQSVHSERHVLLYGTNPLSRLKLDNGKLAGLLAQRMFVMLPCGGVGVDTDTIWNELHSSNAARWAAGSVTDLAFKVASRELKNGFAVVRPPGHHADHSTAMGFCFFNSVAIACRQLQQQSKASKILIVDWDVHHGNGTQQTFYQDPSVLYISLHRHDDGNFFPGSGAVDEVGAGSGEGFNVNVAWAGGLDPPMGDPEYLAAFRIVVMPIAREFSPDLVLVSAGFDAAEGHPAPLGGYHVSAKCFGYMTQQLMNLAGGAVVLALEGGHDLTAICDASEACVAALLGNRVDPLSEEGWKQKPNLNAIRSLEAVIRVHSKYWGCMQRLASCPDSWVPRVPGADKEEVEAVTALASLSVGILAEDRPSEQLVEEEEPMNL
Procedure: (§1) Cells were washed once with phosphate-buffered saline (PBS), harvested with CellstripperTM (Corning®), washed two additional times with PBS and snap frozen in liquid nitrogen. […] Proteins were precipitated using methanol/chloroform in Donovan et al., Elife 7:e38430 (2018). The precipitated protein was resuspended in 4 M Urea, 50 mM HEPES pH 7.4, followed by dilution to 1 M urea with the addition of 200 mM EPPS, pH 8. Proteins were first digested with LysC (1:50: enzyme:protein) for 12 hours at room temperature. The LysC digestion was diluted to 0.5 M Urea with 200 mM EPPS pH 8 followed by digestion with trypsin (1:50: enzyme:protein) for 6 hours at 37° C. Tandem mass tag (TMT) reagents (Thermo Fisher Scientific) were dissolved in anhydrous acetonitrile (ACN) according to manufacturer's instructions. Anhydrous ACN was added to each peptide sample to a final concentration of 30% v/v, and labeling was induced with the addition of TMT reagent to each sample at a ratio of 1:4 peptide:TMT label. The 11-plex labeling reactions were performed for 1.5 hours at room temperature and the reaction quenched by the addition of hydroxylamine to a final concentration of 0.3% for 15 minutes at room temperature. The sample channels were combined at a 1:1 ratio, desalted using C18 solid phase extraction cartridges (Waters®) and analyzed by LC-MS for channel ratio comparison. Samples were then combined using the adjusted volumes determined in the channel ratio analysis and dried down in a speed vacuum. The combined sample was then resuspended in 1% formic acid, and acidified (pH 2-3) before being subjected to desalting with C18 SPE (Sep-Pak®-, Waters®). […] The 96 resulting fractions were then pooled in a non-contiguous manner into 24 fractions and these fractions were used for subsequent mass spectrometry analysis. Data were collected using an Orbitrap FusionTM LumosTM mass spectrometer (Thermo Fisher Scientific, San Jose, CA, USA) coupled with a […] pump (Thermo Fisher Scientific). Peptides were separated on an EasySprayTM ES803.rev2 75 μm inner diameter microcapillary column (ThermoFisher Scientific). Peptides were separated using a 190 min gradient of 6-27% acetonitrile in 1.0% formic acid with a flow rate of 300 nL/min. Each analysis used an MS3-based TMT method as described in McAlister et al., Anal. Chem. 86(14):7150-7158 (2014). The data were acquired using a mass range of m/z 340-1350, resolution 120,000, automatic gain control (AGC) target 1×10^6, maximum injection time 100 ms, dynamic exclusion of 120 seconds for the peptide measurements in the Orbitrap FusionTM LumosTM mass spectrometer. Data dependent MS2 spectra were acquired in the ion trap with a normalized collision energy (NCE) set at 55%, AGC target set to 1.5×10^5 and a maximum injection time of 150 ms. MS3 scans were acquired in the Orbitrap FusionTM LumosTM mass spectrometer with a higher energy collision dissociation (HCD) set to 55%, AGC target set to 1.5×10^5, maximum injection time of 150 ms, resolution at 50,000 and with a maximum synchronous precursor selection (SPS) precursors set to 10. Proteome Discoverer 2.2 (Thermo Fisher Scientific) was used for .RAW file processing and controlling peptide and protein level false discovery rates, assembling proteins from peptides, and protein quantification from peptides. MS/MS spectra were searched against a Swissprot human database (December 2016) with both the forward and reverse sequences. […] TMT reporter ion intensities were measured using a 0.003 Da window around the theoretical m/z for each reporter ion in the MS3 scan. […] Reporter ion intensities were normalized and scaled using in-house scripts in the R framework. Statistical analysis was carried out using the limma package within the R framework as described in Ritchie et al., Nucleic Acids Res. 43(7):e47 (2015).

HDAC8 = HDAC8 (Homo sapiens, UniProt Q9BY41); conditions: FIG. 2A
Procedure: (§2) The in vitro HDAC enzymatic assays were performed by Reaction Biology (Devault, PA).

HDAC6 = HDAC6 (Homo sapiens, UniProt Q9UBN7); conditions: FIG. 2A
Procedure: as §2

HDAC4 = HDAC4 (Homo sapiens, UniProt P56524); assay: Global quantitative proteomics, change in protein abundance in Kelly cells; format: cell-based; parameters: endogenous in cells; host or cells: Kelly cells; conditions: 1 μM, 5-hour treatment, vs DMSO, FIG. 3
Procedure: as §1

HDAC5 = HDAC5 (Homo sapiens, UniProt Q9UQL6); assay: as above; format: cell-based; parameters: endogenous in cells; host or cells: Kelly cells; conditions: 1 μM, 5-hour treatment, vs DMSO, FIG. 3
Procedure: as §1

class IIa HDACs = assay: as above; format: cell-based, human; conditions: 1 μM, 5 hours, vs DMSO, moderated t-test, FIG. 4B-4C
Procedure: Cells were washed once with phosphate-buffered saline (PBS), harvested with CellstripperTM (Corning®), washed two additional times with PBS and snap frozen in liquid nitrogen. […] Proteins were precipitated using methanol/chloroform in Donovan et al., Elife 7:e38430 (2018). The precipitated protein was resuspended in 4 M Urea, 50 mM HEPES pH 7.4, followed by dilution to 1 M urea with the addition of 200 mM EPPS, pH 8. Proteins were first digested with LysC (1:50: enzyme:protein) for 12 hours at room temperature. The LysC digestion was diluted to 0.5 M Urea with 200 mM EPPS pH 8 followed by digestion with trypsin (1:50: enzyme:protein) for 6 hours at 37° C. Tandem mass tag (TMT) reagents (Thermo Fisher Scientific) were dissolved in anhydrous acetonitrile (ACN) according to manufacturer's instructions. Anhydrous ACN was added to each peptide sample to a final concentration of 30% v/v, and labeling was induced with the addition of TMT reagent to each sample at a ratio of 1:4 peptide:TMT label. The 11-plex labeling reactions were performed for 1.5 hours at room temperature and the reaction quenched by the addition of hydroxylamine to a final concentration of 0.3% for 15 minutes at room temperature. The sample channels were combined at a 1:1 ratio, desalted using C18 solid phase extraction cartridges (Waters®) and analyzed by LC-MS for channel ratio comparison. Samples were then combined using the adjusted volumes determined in the channel ratio analysis and dried down in a speed vacuum. The combined sample was then resuspended in 1% formic acid, and acidified (pH 2-3) before being subjected to desalting with C18 SPE (Sep-Pak®-, Waters®). […] Proteome Discoverer 2.2 (Thermo Fisher Scientific) was used for .RAW file processing and controlling peptide and protein level false discovery rates, assembling proteins from peptides, and protein quantification from peptides. […] TMT reporter ion intensities were measured using a 0.003 Da window around the theoretical m/z for each reporter ion in the MS3 scan. […]

HDAC8, sequence (Q9BY41 whole entry): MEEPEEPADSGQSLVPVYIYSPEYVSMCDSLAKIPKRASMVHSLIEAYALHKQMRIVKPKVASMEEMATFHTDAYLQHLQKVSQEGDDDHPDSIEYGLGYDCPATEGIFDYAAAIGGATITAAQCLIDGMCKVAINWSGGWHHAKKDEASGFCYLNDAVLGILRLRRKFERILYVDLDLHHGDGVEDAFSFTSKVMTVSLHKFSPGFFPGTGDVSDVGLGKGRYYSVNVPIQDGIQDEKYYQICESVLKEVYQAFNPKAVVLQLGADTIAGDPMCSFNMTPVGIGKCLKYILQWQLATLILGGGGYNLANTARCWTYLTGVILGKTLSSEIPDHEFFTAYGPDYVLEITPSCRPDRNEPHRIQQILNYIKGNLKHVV
HDAC6, sequence (Q9UBN7 whole entry): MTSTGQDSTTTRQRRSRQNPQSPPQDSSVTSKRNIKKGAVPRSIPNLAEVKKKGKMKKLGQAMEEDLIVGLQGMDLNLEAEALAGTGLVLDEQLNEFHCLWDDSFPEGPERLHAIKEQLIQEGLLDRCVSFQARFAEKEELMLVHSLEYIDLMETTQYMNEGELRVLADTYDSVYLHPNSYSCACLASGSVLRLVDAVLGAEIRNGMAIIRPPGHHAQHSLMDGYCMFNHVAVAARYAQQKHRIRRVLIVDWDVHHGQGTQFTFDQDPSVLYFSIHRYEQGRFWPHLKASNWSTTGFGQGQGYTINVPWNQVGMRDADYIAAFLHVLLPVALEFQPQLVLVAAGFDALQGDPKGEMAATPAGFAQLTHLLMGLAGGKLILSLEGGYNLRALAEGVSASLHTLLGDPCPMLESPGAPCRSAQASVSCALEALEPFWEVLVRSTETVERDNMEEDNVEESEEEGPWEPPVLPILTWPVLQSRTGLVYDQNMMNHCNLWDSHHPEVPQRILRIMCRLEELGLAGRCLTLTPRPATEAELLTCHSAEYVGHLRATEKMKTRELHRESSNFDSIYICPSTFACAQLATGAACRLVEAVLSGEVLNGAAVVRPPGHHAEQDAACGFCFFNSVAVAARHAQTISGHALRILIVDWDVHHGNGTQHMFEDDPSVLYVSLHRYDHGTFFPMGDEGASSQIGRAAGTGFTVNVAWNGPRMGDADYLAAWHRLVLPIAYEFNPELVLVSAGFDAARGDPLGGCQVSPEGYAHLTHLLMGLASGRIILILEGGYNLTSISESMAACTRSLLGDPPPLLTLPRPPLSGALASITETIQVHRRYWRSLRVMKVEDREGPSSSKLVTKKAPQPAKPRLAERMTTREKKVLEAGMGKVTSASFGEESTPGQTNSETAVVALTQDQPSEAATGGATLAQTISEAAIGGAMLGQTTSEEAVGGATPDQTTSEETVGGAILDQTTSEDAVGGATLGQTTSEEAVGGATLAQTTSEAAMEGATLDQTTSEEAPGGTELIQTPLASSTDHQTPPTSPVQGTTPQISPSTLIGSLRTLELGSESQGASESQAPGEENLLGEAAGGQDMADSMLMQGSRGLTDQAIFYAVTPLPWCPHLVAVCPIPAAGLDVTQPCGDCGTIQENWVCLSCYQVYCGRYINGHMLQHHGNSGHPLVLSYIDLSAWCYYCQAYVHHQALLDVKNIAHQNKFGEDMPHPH
HDAC4, sequence (P56524 whole entry): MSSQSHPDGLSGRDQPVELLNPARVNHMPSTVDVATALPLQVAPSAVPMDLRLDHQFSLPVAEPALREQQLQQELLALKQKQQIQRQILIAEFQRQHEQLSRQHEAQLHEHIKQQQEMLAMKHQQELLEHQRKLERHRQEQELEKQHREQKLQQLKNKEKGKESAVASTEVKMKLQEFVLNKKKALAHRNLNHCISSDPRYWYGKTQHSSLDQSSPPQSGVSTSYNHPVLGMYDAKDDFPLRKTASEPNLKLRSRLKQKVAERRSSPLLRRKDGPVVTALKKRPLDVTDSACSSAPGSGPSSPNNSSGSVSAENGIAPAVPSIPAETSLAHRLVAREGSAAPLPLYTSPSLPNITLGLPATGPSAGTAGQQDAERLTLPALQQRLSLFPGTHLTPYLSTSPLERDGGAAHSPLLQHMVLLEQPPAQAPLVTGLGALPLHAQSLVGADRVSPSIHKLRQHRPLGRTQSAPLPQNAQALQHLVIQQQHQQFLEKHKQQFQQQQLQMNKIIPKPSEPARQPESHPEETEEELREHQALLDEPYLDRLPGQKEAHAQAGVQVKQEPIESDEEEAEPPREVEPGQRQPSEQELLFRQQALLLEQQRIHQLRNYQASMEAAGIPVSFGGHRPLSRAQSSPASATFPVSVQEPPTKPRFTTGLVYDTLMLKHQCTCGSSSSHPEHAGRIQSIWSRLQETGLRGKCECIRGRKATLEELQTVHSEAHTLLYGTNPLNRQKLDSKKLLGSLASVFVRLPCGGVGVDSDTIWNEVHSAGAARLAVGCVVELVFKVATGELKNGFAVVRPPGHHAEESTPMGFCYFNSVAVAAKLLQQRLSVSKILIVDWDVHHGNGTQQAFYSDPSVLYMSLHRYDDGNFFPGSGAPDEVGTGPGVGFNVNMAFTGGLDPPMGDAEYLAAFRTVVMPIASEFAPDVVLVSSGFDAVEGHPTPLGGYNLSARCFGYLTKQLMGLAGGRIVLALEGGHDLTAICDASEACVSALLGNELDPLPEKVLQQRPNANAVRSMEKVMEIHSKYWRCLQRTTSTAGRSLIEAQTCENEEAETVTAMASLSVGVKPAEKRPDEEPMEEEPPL
HDAC5, sequence (Q9UQL6 whole entry): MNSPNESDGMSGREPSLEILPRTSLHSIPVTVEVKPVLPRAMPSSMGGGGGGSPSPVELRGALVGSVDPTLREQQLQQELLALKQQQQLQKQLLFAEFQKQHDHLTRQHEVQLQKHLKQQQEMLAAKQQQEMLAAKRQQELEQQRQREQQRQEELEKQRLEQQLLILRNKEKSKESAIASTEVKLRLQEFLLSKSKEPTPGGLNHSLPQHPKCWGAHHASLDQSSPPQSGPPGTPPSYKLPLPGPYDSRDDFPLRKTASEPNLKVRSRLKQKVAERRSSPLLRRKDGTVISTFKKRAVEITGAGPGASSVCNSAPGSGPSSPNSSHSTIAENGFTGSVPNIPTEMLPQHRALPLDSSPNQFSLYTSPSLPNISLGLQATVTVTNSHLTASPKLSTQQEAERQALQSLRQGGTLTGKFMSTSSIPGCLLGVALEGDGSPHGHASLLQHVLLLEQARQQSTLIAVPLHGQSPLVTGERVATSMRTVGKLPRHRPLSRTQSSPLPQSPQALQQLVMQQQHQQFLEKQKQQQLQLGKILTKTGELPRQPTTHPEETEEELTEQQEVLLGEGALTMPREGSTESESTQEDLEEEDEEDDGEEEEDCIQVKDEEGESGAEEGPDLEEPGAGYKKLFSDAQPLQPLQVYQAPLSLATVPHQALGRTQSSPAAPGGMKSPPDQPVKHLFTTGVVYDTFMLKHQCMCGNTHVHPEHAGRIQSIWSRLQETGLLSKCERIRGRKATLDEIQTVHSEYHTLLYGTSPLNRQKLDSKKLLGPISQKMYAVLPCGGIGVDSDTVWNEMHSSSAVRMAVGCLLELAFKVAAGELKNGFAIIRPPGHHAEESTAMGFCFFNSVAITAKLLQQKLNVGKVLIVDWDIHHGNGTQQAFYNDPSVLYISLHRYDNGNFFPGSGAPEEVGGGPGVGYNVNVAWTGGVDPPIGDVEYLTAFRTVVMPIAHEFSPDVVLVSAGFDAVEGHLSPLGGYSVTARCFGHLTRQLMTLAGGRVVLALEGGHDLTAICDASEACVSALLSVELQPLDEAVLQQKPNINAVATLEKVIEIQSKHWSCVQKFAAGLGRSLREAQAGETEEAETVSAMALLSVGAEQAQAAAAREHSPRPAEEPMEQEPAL

| SMILES | protein expression level of HDAC7 (HDAC7) | inhibition of HDAC8 (HDAC8) | inhibition of HDAC6 (HDAC6) | protein expression level of HDAC4 (HDAC4) | protein expression level of HDAC5 (HDAC5) | class IIa HDAC levels (relative protein abundance) (class IIa HDACs) |
| --- | --- | --- | --- | --- | --- | --- |
| O=C1CCC(N2C(=O)c3cccc(NCCCCCCN4CCC(CNC(=O)c5cccc(-c6noc(C(F)(F)F)n6)c5)(c5nc(-c6ccccc6)cs5)CC4)c3C2=O)C(=O)N1 (stereo not shown) [Compound 1] | selective reduction in protein expression level | did not inhibit | did not inhibit | – | – | – |
| CCN(CCNc1cccc2c1C(=O)N(C1CCC(=O)NC1=O)C2=O)C[C@@H](C)NC(=O)c1ccc(-c2noc(C(F)(F)F)n2)cc1 (stereo partly drawn) [Compound 16, N-((2R)-1-((2-((2-(2,6-dioxopiperidin-3-yl)-1,3-dioxoisoindolin-4-yl)amino)ethyl)(ethyl)amino)propan-2-yl)-4-(5-(trifluoromethyl)-1,2,4-oxadiazol-3-yl)benzamide] | reduction in protein expression level | – | – | reduction in protein expression level | reduction in protein expression level | significant reduction |

Source: patent US20240246956A1, “CLASS IIA HISTONE DEACETYLASE (HDAC) DEGRADER LIGANDS AND METHODS OF USE THEREOF” (DANA-FARBER CANCER INSTITUTE, INC., priority 2021, published 2024)
